Source: patent US11919898B2, “Crystal form of azaindole derivative and use thereof” (Wuxi Life Fountain Biotech Co., Ltd, priority 2020, dated 2024)
Where “and” joins values, the source holds several entries; their conditions need not be identical. Identical values can stand only once.

Tests used:
[1] = Stability comparison of crystal form A and crystal form B (slurry in ethanol, XRPD); type: physicochemical; details: stirred in ethanol for 16 hrs
Description: 35 g of the crystal form B of the compound of Formula (II) was weighed, added to ethanol, and stirred for 16 hrs.

[2] = Hygroscopicity test by dynamic vapor sorption (DVS); type: physicochemical; details: for ΔW, hygroscopic weight gain: 25° C. and 80% RH, DVS; for Classification of hygroscopicity: 25° C./80% RH
Experimental: Dynamic Vapor Sorption (DVS) of the Present Invention • Instrument model: SMS DVS Intrinsic Dynamic Vapor Sorption Analyzer • Test method: A sample (10-30 mg) is tested in a DVS sample pan. Detailed DVS Parameters: • Temperature: 25° C. • Equilibration: dm/dt=0.002%/min (Minimum: 10 min, Maximum: 180 min) • RH (%) test interval: 10 (0-90%), 5 (90-95%) • RH (%) test interval range: 0-95-0 Hygroscopicity evaluations are classified as follows: [table] Note: AW % represents the hygroscopic weight gain of the test product at 25° C./80% RH. Experimental Method: • 10-30 mg of the crystal form A of the compound of Formula (II) was placed in the DVS sample pan and tested. Experimental Method: • 10-30 mg of the crystal form G of the compound of Formula (III) was placed in the DVS sample pan and tested. Experimental Method: • 10-30 mg of the crystal form J of the compound of Formula (IV) was placed in the DVS sample pan and tested.

## COc1cc(OC)c(F)c(Cc2c[nH]c3ncc(-c4cnn(CCO)c4)cc23)c1F.Cl
[1]
  Crystal form conversion (XRPD): can be converted into the crystal form A of the compound of Formula (II)

## COc1cc(OC)c(F)c(Cc2c[nH]c3ncc(-c4cnn(CCO)c4)cc23)c1F
[2]
  ΔW, hygroscopic weight gain: 3.829% and 3.928%
  Classification of hygroscopicity: hygroscopic

## COc1cc(OC)c(F)c(Cc2c[nH]c3ncc(-c4cnn(CCO)c4)cc23)c1F.Cc1ccc(S(=O)(=O)O)cc1
[2]
  ΔW, hygroscopic weight gain: 6.077%
  Classification of hygroscopicity: hygroscopic
